Measured values as given in patent US10758609B2, “Cross-reactive T-cell epitopes of HIV, SIV, and FIV for vaccines in humans and cats” (priority 2015, dated 2020).

Assays:
[1] = system: CD3^+CD8^+ T cells from HIV^+ subjects; test: CFSE-based CD3+CD8+ T-cell proliferation, HIV+ human subjects; settings: for CD8, frequency of responders: FIV epitope peptide; for CD8^+ T (T-cell proliferation), frequency of responders: FIV peptides
Procedure: The overlapping peptide pools of FIV and HIV-1 structural and enzyme proteins were used to stimulate the […] (PBMC) and the T cells from HIV^+ subjects as previously described for epitope mapping of HIV-1 and FIV p24 and reverse transcriptase (RT) (Sanou et al., 2013; Roff et al., 2015). The individual peptides in those peptide pools with positive responses to either interferon-γ (IFNγ) production and/or T-cell proliferation were determined with IFNγ ELISpot analysis and CFSE-based CD3^+CD4^+ and CD3^+CD8^+ T-cell proliferation analyses followed by the FACS-based intracellular staining (ICS) for cytolysin (perforin) and cytotoxin (granzyme A [GrzA] and GrzB) (Sanou et al., 2013; Roff et al., 2015). Besides viral p24 and RT proteins, the identical approach was used to identify anti-HIV/FIV T-cell epitopes on viral matrix (MA), nucleocapsid (NC), protease (PR), RNAase, integrase (IN), surface envelope (SU Env), and transmembrane envelope (TM Env) (FIG. 12).
Since our goal is to develop HIV vaccine for human use, the HIV peptides (Table 10) counterpart of the cross-reactive FIV peptides shown in Table 9 were tested with PBMC and T cells from HIV^+ subjects. The immune functions analyzed were human IFNγ production by ELISpot, cytolysin/cytotoxin production by ICS, and CFSE-based proliferation of CD3^+CD4^+ and CD3^+CD8^+ T cells from HIV^+ subjects (Table 10, the first set of results). In addition, the Los Alamos National Laboratories (LANL) database was used to identify the HLA allele(s) of the HIV epitope sequence with CTL activity that can exist within the sequence of the conserved counterpart HIV peptide (Table 9, LANL CTL). The bold HLA class-I supertypes and the bold 2-digit alleles are those on the “Optimal CD8^+ CTL Epitopes” list and those without bold are alleles for potential CTL epitope. […] The HLA class II such as HLA-DRB1 has yet to be fully classified into supertypes, and therefore the 4-digit resolution nomenclatures for the HLA-DRB1 alleles are shown.
The threshold for positive IFNγ and IL2 ELISpot responses is ≥50 spot-forming units (SFU) per 10^6 PBMC. The threshold for CFSE-based CD4^+ and CD8^+ T-cell proliferation is ≥2% CD4^+ T-cell CFSE^low or CD8^+ T-cell CFSE^low. The threshold of FACS-based intracellular cytokine staining (ICS) is ≥0.2%. […] The nine FIV peptides in black were used in the current MAP vaccine trial, whereas the 13 peptides in blue were not used. […] The MAPs and their corresponding peptide(s) were also tested for their ability to enhance or suppress in vitro FIV infection of feline PBMC (E/S of peptides and E/S of MAP).
The counterpart HIV-1 peptides of the FIV peptides were also tested for immunogenicity using PBMC and T cells from HIV^+ human subjects. […] The HRT7-1 and HRT7-2 were also tested with cells from HIV^+ subjects on ART. The threshold for positive IFNγ ELISpot response is ≥75 spot-forming units (SFU) per 10^6 PBMC. The threshold for CFSE-based CD4^+ (CD4^+ T) and CD8^+ (CD8^+ T) T-cell proliferation is ≥2% CD4^+ T-cell CFSE^low or CD8^+ T-cell CFSE^low. The threshold of intracellular cytokine staining (ICS) of FACS-based cytolysin (perforin) and cytotoxins (granzymes A and B) in CD4^+ T cells (CyCD4) and CD8^+ T cells (CyCD8) is ≥0.2%. […] The nine HIV-1 peptides in black are the counterpart FIV peptides used in the current MAP vaccine trial, whereas the 13 peptides in blue were not.

[2] = system: PBMC from FIV-vaccinated cats; test: Feline IL2 ELISpot of PBMC from vaccinated cats; type: cell-based, cat
Procedure: IFNγ and IL2 ELISpot analyses were performed using feline IFNγ ELISpot and feline IL2 ELISpot kits (R&D Systems, Cat# SEL764 and SEL1890) as described. The threshold is defined as ≥50 spot forming units (SFU) per 1×10^6 PBMC when counted with MVS ELISpot Reader (MVS Pacific, LLC). Each result is an average of the duplicate samples after subtraction of the average value of the media controls.
Concurrently, the overlapping peptide pools of FIV structural/enzyme proteins were used to stimulate PBMC and T cells from FIV-vaccinated cats. These cats were vaccinated with prototype dual-subtype FIV vaccine which was the prototype to our commercial FIV vaccine (Coleman et al., 2014). The feline assays (Example 1) equivalent to those of human assays (Sanou et al., 2013; Roff et al., 2015) were used except for ICS analysis. In place of ICS for cytolysin/cytotoxins, IL2 ELISpot analysis was performed. […] The results for FIV-vaccinated cats included IFNγ and IL2 productions and CD3^+CD4+ and CD3^+CD8^+ T-cell proliferation (Table 9, the second set of results).
The feline IFNγ and L2 ELISpot analyses of PBMC to FIV MAPs and peptides were performed as previously described (Abbott et al. (2012)) using feline IFNγ modular kit (R&D Systems, Minneapolis, Minn.) and feline IL2 modular kit (R&D Systems). All results shown in the figures (FIGS. 8A-1, 8B-1, 8A-2, 8B-2, 8A-3, 8B-3) are after subtracting the average value of the results from all control cats.
The second parameter evaluated was the ability of the peripheral blood mononuclear cells (PBMC) from vaccinated and control cats to produce IL2 and interferon-γ (IFNγ) proteins in responses to FIV MAPs and peptides (FIGS. 8A-1, 8A-2, 8A-3, 8B-1, 8B-2, 8B-3) using feline IL2 and IFNγ ELISpot assays (Aranyos et al. (2016); Abbott et al. (2012)). IL2 enhances the proliferation of FIV-specific CD4^+ T cells and CD8^+ T cells. IFNγ is known enhance the FIV-specific CTL activities in vaccinated cats (Abbas et al. (2015)).

Sequence | CD8, frequency of responders [1] | CD8^+ T (T-cell proliferation), frequency of responders [1] | IL2, frequency of responders ([2]; FIV epitope peptide) | IL2, frequency of responders ([2]; FIV peptides)
AGLRQSLEQYQVVKQ [FSU4] | — (0%-1.4% (—)) | — (0%-1.4%(—)) | — (0%-1.4% (—)) | — (0%-1.4%(—))
LLLILCLPTLVDCIRN [FTM8(20)] | ++++ (>54% (++++)) | ++++ (>54% (++++)) | — (0%-1.4% (—)) | — (0%-1.4%(—))
KKKSGKWRMLIDFRV [FRT3-3] | ++++ (>54% (++++)) | ++++ (>54% (++++)) | ++ (26%-40% (++)) | ++ (25.1%-40% (++))
PTDMATLIMAAPGCA [Fp4-3] | — (0%-1.4% (—)) | — (0%-1.4%(—)) | + (12.5%-25% (+)) | + (12.5%-25% (+))
KFLYTAFAMQELR [FTM4-3] | — (0%-1.4% (—)) | — (0%-1.4%(—)) | ++++ (>54% (++++)) | ++++ (>54% (++++))
WRMLIDFRVLNKL [FRT3-4] | ++ (26%-40% (++)) | ++ (25.1%-40% (++)) | ++ (26%-40% (++)) | ++ (25.1%-40% (++))
